{"source": "patent US20110071125A1", "about": "“SUBSTITUTED PHENYLAMINO-BENZENE DERIVATIVES USEFUL FOR TREATING HYPER-PROLIFERATIVE DISORDERS AND DISEASES ASSOCIATED WITH MITOGEN EXTRACELLULAR KINASE ACTIVITY” (priority 2007, published 2011)", "origin": "cited, not measured here", "test_system": "colon cancer", "conditions": "oral treatment, mouse models, ref. [18]", "data": [{"compound": "O=C(NOCC1CC1)c1ccc(F)c(F)c1Nc1ccc(I)cc1Cl", "note": "[PD184352]", "values": [{"measurement": "colon cancer growth in vivo", "value": "inhibit colon cancer growth in vivo"}]}]}
